From patent US10112941B2, “Tricyclic compounds as anticancer agents” (BRISTOL-MYERS SQUIBB COMPANY, priority 2013, dated 2018) come the findings set out here.

The target in this assay is BRD4 (Homo sapiens, UniProt O60885). The assay is described as follows: Time Resolved Fluorescence Resonance Energy Transfer (TR-FRET) binding assay, BRD4. As to conditions: one of the FRET assays described. (Time-resolved FRET reads energy transfer from a long-lived donor to a nearby acceptor.)

Read-outs that look alike come from different tables or passages of the source. Bounds are passed on as bounds.

As usually defined, the IC50 is the concentration that inhibits the measured activity by half. As to `COc1cc2c3ncc(-c4c(C)nnn4C)cc3n([C@H](c3ccccc3)C3CCOCC3)c2cc1C(C)(C)O` [Example 354, 2-[3-(Dimethyl-1H-1,2,3-triazol-5-yl)-8-methoxy-5-[(S)-oxan-4-yl(phenyl)methyl]-5H-pyrido[3,2-b]indol-7-yl]propan-2-ol], the IC50 (read-out: FRET BRD4 IC50) was less than 5 nM.
As for `COc1c(C(C)(C)O)ccc2c3ncc(-c4c(C)nnn4C)cc3n([C@H](c3ccccc3)C3CCOCC3)c12` [Example 355, 2-[3-(Dimethyl-1H-1,2,3-triazol-5-yl)-6-methoxy-5-[(S)-oxan-4-yl(phenyl)methyl]-5H-pyrido[3,2-b]indol-7-yl]propan-2-ol], the IC50 (read-out: FRET BRD4 IC50) was less than 5 nM.
With `C=C(C)c1ccc2c3ncc(-c4c(C)nnn4C)cc3n([C@H](c3ccccc3)C3CCOCC3)c2c1CO` [Example 356, [3-(Dimethyl-1H-1,2,3-triazol-5-yl)-5-[(S)-oxan-4-yl(phenyl)methyl]-7-(prop-1-en-2-yl)-5H-pyrido[3,2-b]indol-6-yl]methanol], the IC50 (read-out: FRET BRD4 IC50) was less than 5 nM.
As to `Cc1nnn(C)c1-c1cnc2c3ccc(NC(=O)OCCC(F)(F)F)cc3n([C@H](c3ccccc3)C3CCOCC3)c2c1` [Example 364, 3,3,3-Trifluoropropyl N-[3-(dimethyl-1H-1,2,3-triazol-5-yl)-5-[(S)-oxan-4-yl(phenyl)methyl]-5H-pyrido[3,2-b]indol-7-yl]carbamate], the IC50 (read-out: FRET BRD4 IC50) is less than 5 nM.
With `COC(=O)Nc1ccc2c3ncc(-c4c(C)nnn4C)cc3n([C@H](c3ccccc3)C3CCOCC3)c2c1` [Example 365, Methyl N-[3-(dimethyl-1H-1,2,3-triazol-5-yl)-5-[(S)-oxan-4-yl(phenyl)methyl]-5H-pyrido[3,2-b]indol-7-yl]carbamate], the concentration for half-maximal inhibition (IC50) (read-out: FRET BRD4 IC50) is less than 5 nM.
The same measure, in the same setting: for `CCOC(=O)Nc1ccc2c3ncc(-c4c(C)nnn4C)cc3n([C@H](c3ccccc3)C3CCOCC3)c2c1` [Example 366, Ethyl N-[3-(dimethyl-1H-1,2,3-triazol-5-yl)-5-[(S)-oxan-4-yl(phenyl)methyl]-5H-pyrido[3,2-b]indol-7-yl]carbamate] the value was less than 5 nM; for `Cc1nnn(C)c1-c1cnc2c3ccc(NC(=O)OC(C)C)cc3n([C@H](c3ccccc3)C3CCOCC3)c2c1` [Example 367, Propan-2-yl N-[3-(dimethyl-1H-1,2,3-triazol-5-yl)-5-[(S)-oxan-4-yl(phenyl)methyl]-5H-pyrido[3,2-b]indol-7-yl]carbamate], less than 5 nM.
With `Cc1nnn(C)c1-c1cnc2c3c(F)cc(C(C)(C)O)cc3n([C@H](c3ccccc3)C3CCOCC3)c2c1` [Example 369, 2-[3-(Dimethyl-1H-1,2,3-triazol-5-yl)-9-fluoro-5-[(S)-oxan-4-yl(phenyl)methyl]-5H-pyrido[3,2-b]indol-7-yl]propan-2-ol], the half-maximal inhibitory concentration (IC50) (read-out: FRET BRD4 IC50) is less than 5 nM.
As to `Cc1noc(C)c1-c1cnc2c3c(F)cc(C(C)(C)O)cc3n([C@H](c3ccccc3)C3CCOCC3)c2c1` [Example 370, 2-[3-(Dimethyl-1,2-oxazol-4-yl)-9-fluoro-5-[(S)-oxan-4-yl(phenyl)methyl]-5H-pyrido[3,2-b]indol-7-yl]propan-2-ol], the IC50 (read-out: FRET BRD4 IC50) is less than 5 nM.
With `Cc1nnn(C)c1-c1cnc2c3cc(S(C)(=O)=O)ccc3n([C@H](c3ccccc3)C3CCOCC3)c2c1` [Example 375, 5-{8-Methanesulfonyl-5-[(S)-oxan-4-yl(phenyl)methyl]-5H-pyrido[3,2-b]indol-3-yl}-1,4-dimethyl-1H-1,2,3-triazole], where the note is “read-out: FRET BRD4 IC50”, the IC50 was less than 5 nM.
With `Cc1nnn(C)c1-c1cnc2c3cccc(S(C)(=O)=O)c3n([C@H](c3ccccc3)C3CCOCC3)c2c1` [Example 376, 5-{6-Methanesulfonyl-5-[(S)-oxan-4-yl(phenyl)methyl]-5H-pyrido[3,2-b]indol-3-yl}-1,4-dimethyl-1H-1,2,3-triazole], the IC50 (read-out: FRET BRD4 IC50) is less than 5 nM.
Turning to `Cc1nnn(C)c1-c1cnc2c3cccc(S(C)(=O)=O)c3n([C@@H](CCC(F)(F)F)c3ccccc3)c2c1` [Example 377, 5-{6-Methanesulfonyl-5-[(1S)-4,4,4-trifluoro-1-phenylbutyl]-5H-pyrido[3,2-b]indol-3-yl}-1,4-dimethyl-1H-1,2,3-triazole], the IC50 (read-out: FRET BRD4 IC50) is less than 5 nM.
Regarding `[2H]C([2H])([2H])Oc1nnn(C)c1-c1cnc2c3ccc(C(C)(C)O)cc3n([C@H](c3ccccc3)C3CCOCC3)c2c1` [Example 378, 2-{3-[4-(^2H3)Methoxy-1-methyl-1H-1,2,3-triazol-5-yl]-5-[(S)-oxan-4-yl(phenyl)methyl]-5H-pyrido[3,2-b]indol-7-yl}propan-2-ol], the IC50 (read-out: FRET BRD4 IC50) was less than 5 nM.
In the case of `COc1nnn(C)c1-c1cnc2c3ccc(C(C)(C)O)cc3n([C@H](c3ccccc3)C3CCOCC3)c2c1` [Example 379, 2-[3-(4-Methoxy-1-Methyl-1H-1,2,3-triazol-5-yl)-5-[(S)-oxan-4-yl(phenyl)methyl]-5H-pyrido[3,2-b]indol-7-yl]propan-2-ol], the IC50 (read-out: FRET BRD4 IC50) is less than 5 nM.
Consider `[2H]C([2H])([2H])Oc1nnn(C([2H])([2H])[2H])c1-c1cnc2c3ccc(C(C)(C)O)cc3n([C@H](c3ccccc3)C3CCOCC3)c2c1` [Example 380, 2-{3-[4-(^2H3)Methoxy-1-(^2H3)methyl-1H-1,2,3-triazol-5-yl]-5-[(S)-oxan-4-yl(phenyl)methyl]-5H-pyrido[3,2-b]indol-7-yl}propan-2-ol], for which the IC50 (read-out: FRET BRD4 IC50) is less than 5 nM.
Consider `[2H]C([2H])([2H])n1nnc(OC)c1-c1cnc2c3ccc(C(C)(C)O)cc3n([C@H](c3ccccc3)C3CCOCC3)c2c1` [Example 381, 2-{3-[4-Methoxy-1-(^2H3)methyl-1H-1,2,3-triazol-5-yl]-5-[(S)-oxan-4-yl(phenyl)methyl]-5H-pyrido[3,2-b]indol-7-yl}propan-2-ol], for which the IC50 (read-out: FRET BRD4 IC50) was less than 5 nM.
For `CCOc1nnn(C)c1-c1cnc2c3ccc(C(C)(C)O)cc3n([C@H](c3ccccc3)C3CCOCC3)c2c1` [Example 382, 2-[3-(4-Ethoxy-1-methyl-1H-1,2,3-triazol-5-yl)-5-[(S)-oxan-4-yl(phenyl)methyl]-5H-pyrido[3,2-b]indol-7-yl]propan-2-ol], the IC50 (read-out: FRET BRD4 IC50) was less than 5 nM.
Turning to `Cn1nnc(Br)c1-c1cnc2c3cc(Br)c(C(C)(C)O)cc3n([C@H](c3ccccc3)C3CCOCC3)c2c1` [Example 383, 2-[8-Bromo-3-(4-bromo-1-methyl-1H-1,2,3-triazol-5-yl)-5-[(S)-oxan-4-yl(phenyl)methyl]-5H-pyrido[3,2-b]indol-7-yl]propan-2-ol], for the setting “read-out: FRET BRD4 IC50”, the IC50 is less than 5 nM.
The molecule `Cn1nnc(Br)c1-c1cnc2c3ccc(C(C)(C)O)cc3n([C@H](c3ccccc3)C3CCOCC3)c2c1` [Example 384, 2-[3-(4-Bromo-1-methyl-1H-1,2,3-triazol-5-yl)-5-[(S)-oxan-4-yl(phenyl)methyl]-5H-pyrido[3,2-b]indol-7-yl]propan-2-ol] came in with an IC50 (FRET BRD4 IC50 (nM)) of less than 5 nM.
Turning to `Cn1nnc(C2CC2)c1-c1cnc2c3ccc(C(C)(C)O)cc3n([C@H](c3ccccc3)C3CCOCC3)c2c1` [Example 385, 2-[3-(4-Cyclopropyl-1-methyl-1H-1,2,3-triazol-5-yl)-5-[(S)-oxan-4-yl(phenyl)methyl]-5H-pyrido[3,2-b]indol-7-yl]propan-2-ol], under “read-out: FRET BRD4 IC50”, the IC50 was less than 5 nM.
For the molecule `Cn1nnc(Cl)c1-c1cnc2c3cc(Cl)c(C(C)(C)O)cc3n([C@H](c3ccccc3)C3CCOCC3)c2c1` [Example 386, 2-[8-Chloro-3-(4-chloro-1-methyl-1H-1,2,3-triazol-5-yl)-5-[(S)-oxan-4-yl(phenyl)methyl]-5H-pyrido[3,2-b]indol-7-yl]propan-2-ol], the IC50 (read-out: FRET BRD4 IC50) is less than 5 nM.
`Cn1nnc(Cl)c1-c1cnc2c3ccc(C(C)(C)O)cc3n([C@H](c3ccccc3)C3CCOCC3)c2c1` [Example 387, 2-[3-(4-Chloro-1-methyl-1H-1,2,3-triazol-5-yl)-5-[(S)-oxan-4-yl(phenyl)methyl]-5H-pyrido[3,2-b]indol-7-yl]propan-2-ol] displayed a half-inhibitory concentration (IC50) (FRET BRD4 IC50 (nM)) of less than 5 nM.
Take `CCc1nnn(C)c1-c1cnc2c3ccc(C(C)(C)O)cc3n([C@H](c3ccccc3)C3CCOCC3)c2c1` [Example 388, 2-[3-(4-Ethyl-1-methyl-1H-1,2,3-triazol-5-yl)-5-[(S)-oxan-4-yl(phenyl)methyl]-5H-pyrido[3,2-b]indol-7-yl]propan-2-ol]: the IC50 (read-out: FRET BRD4 IC50) is less than 5 nM.
Take `Cn1nnc(N)c1-c1cnc2c3ccc(C(C)(C)O)cc3n([C@H](c3ccccc3)C3CCOCC3)c2c1` [Example 389, 2-[3-(4-Amino-1-methyl-1H-1,2,3-triazol-5-yl)-5-[(S)-oxan-4-yl(phenyl)methyl]-5H-pyrido[3,2-b]indol-7-yl]propan-2-ol]: where the note is “read-out: FRET BRD4 IC50”, the IC50 is less than 5 nM.
Same read-out and setting: for `CNc1nnn(C)c1-c1cnc2c3ccc(C(C)(C)O)cc3n([C@H](c3ccccc3)C3CCOCC3)c2c1` [Example 390, 2-{3-[1-Methyl-4-(methylamino)-1H-1,2,3-triazol-5-yl]-5-[(S)-oxan-4-yl(phenyl)methyl]-5H-pyrido[3,2-b]indol-7-yl}propan-2-ol] the value was less than 5 nM; for `COc1nnn(C)c1-c1cnc2c3ccc(S(C)(=O)=O)cc3n([C@H](c3ccccc3)C3CCOCC3)c2c1` [Example 391, 5-{7-Methanesulfonyl-5-[(S)-oxan-4-yl(phenyl)methyl]-5H-pyrido[3,2-b]indol-3-yl}-4-methoxy-1-methyl-1H-1,2,3-triazole], less than 5 nM; for `[2H]C([2H])([2H])Oc1nnn(C)c1-c1cnc2c3ccc(NC(=O)OC(C)C)cc3n([C@H](c3ccccc3)C3CCOCC3)c2c1` [Example 392, Propan-2-yl N-{3-[4-(^2H3)methoxy-1-methyl-1H-1,2,3-triazol-5-yl]-5-[(S)-oxan-4-yl(phenyl)methyl]-5H-pyrido[3,2-b]indol-7-yl}carbamate], less than 5 nM.
With `[2H]C([2H])([2H])c1nnn(C)c1-c1cnc2c3ccc(C(C)(C)O)c(Cl)c3n([C@H](c3ccccc3)C3CCOCC3)c2c1` [Example 393, 2-{6-Chloro-3-[4-(^2H3)methyl-1-methyl-1H-1,2,3-triazol-5-yl]-5-[(S)-oxan-4-yl(phenyl)methyl]-5H-pyrido[3,2-b]indol-7-yl}propan-2-ol], under “read-out: FRET BRD4 IC50”, the half-maximal inhibitory concentration (IC50) is less than 5 nM.
As to `Cc1nnn(C)c1-c1cnc2c3ccc(CO)cc3n([C@H](c3ccccc3)C3CCOCC3)c2c1` [Example 405, [3-(Dimethyl-1H-1,2,3-triazol-5-yl)-5-[(S)-oxan-4-yl(phenyl)methyl]-5H-pyrido[3,2-b]indol-7-yl]methanol], the IC50 (read-out: FRET BRD4 IC50) was less than 5 nM.
